Assay [1] relates to CT26 allograft. As to the kind of experiment: CT26 allograft, Compound 1 and anti-PD-L1 combination in vivo. Details: species or system mouse. The conditions noted are these: Compound 1 40 mg/kg oral gavage daily + anti-PD-L1 10 mg/kg every 5 days. The procedure: Combination studies were performed by vivoPharm (Hummelstown, Pa., USA). All procedures used in the performance of these studies were carried out in accordance with vivoPharm's Standard Operating Procedures, with particular reference to US_SOPvP_EF0314 “General Procedures for Efficacy Studies.” CT26 colon carcinoma cells (1×10^6 cells/mouse in 100 μL, passage 2-3) were re-suspended in serum-free DMEM and implanted in the upper right flank of 11-12 week old female Balb/c mice (Charles River Laboratories). Mice were randomized into four groups of 10 using a matched pair distribution method based on tumor size for CT26. Treatment was initiated 12 days post-inoculation with mean tumor volume at start of dosing of 125.85 mm^3. Vehicle or Compound 1 (40 mg/kg) was administered by oral gavage daily for 26 days and isotype control or a reverse chimera anti-PD-L1 cloned from literature reports (e.g., Deng, R. et al. MAbs (2016), the content of which is incorporated herein by reference in entirety) and placed into a mouse IgG1 framework (10 mg/kg) was administered every 5 days for a total of six doses. Investigators were not blinded to treatment groups. […] Mice were sacrificed on Day 13 and lung metastases were quantified (small ≤1 mm, medium >1 mm and ≤3 mm, large >3 mm). No large lung metastases were detected.

In assay [2] the target is off-target kinases (Homo sapiens, UniProt P06241). Put plainly: SelectScreen Kinase Profiling, single point inhibition and IC50 for off-target kinases. The class given is biochemical. The conditions noted are these: FYN A, LanthaScreen Binding. Details: other: FYN A; 1000 μM. The procedure: (§1) Biochemical single point inhibition and IC50 concentrations for TBK1, IKKε (IKBKE), and off-target kinases were determined at ThermoFisher Scientific using SelectScreen Kinase Profiling Services (Madison, Wis., USA) (Tables S4A and S4B-1-7). To determine cellular potency, the human colorectal cancer carcinoma cell line HCT116 (ATCC, Manassas, Va.) was maintained in T175 flasks in complete RPMI medium; RPMI 1640 supplemented with 10% FBS, 1× Penicillin-Streptomycin solution and 1×MEM (non-essential amino acids). HCT116 cells were grown to 90-95% confluency in T175 flasks containing complete RPMI medium and transfected in bulk using Lipofectamine 2000 (Invitrogen, Carlsbad, Calif.) with 70 μg of ISG54-luciferase reporter plasmid (Elim Biopharmaceuticals Inc., Hayward, Calif.). The reporter plasmid contains a luciferase gene expression cassette under the transcriptional regulation of the promoter of the human interferon stimulated gene 54 (ISG54). […] The assay plates were incubated for 5 hours at 37° C., followed by addition of One-Glo luciferase firefly reagent (Promega, Madison, Wis.) at 1:1 volume/well and luminescence was measured in an EnVision Multilabel Plate Reader (PerkinElmer, Santa Clara, Calif.). The EC50 values were calculated from the fit of the dose-response curves to a four-parameter equation. […]
In general terms: In TR-FRET formats the signal depends on donor and acceptor labels being close together.

Assay [3] addresses off-target kinases (Homo sapiens, UniProt P07948). The assay is described as above. In kind it is biochemical. Details: other: LYN B; 1000 μM; ATP Km app; ZLYTE. To be noted: LYN B, ATP Km app, ZLYTE. Here is the method:
as §1, with “(ISG54). Transfection of the cells was allowed to take place for 6 hours, after which the cells were harvested by treatment with 0.25% trypsin EDTA (Corning Inc., Corning, N.Y.). Trypsinized cells were added to 384-well poly-d-lysine treated black clear bottom tissue culture assay plates (Greiner Bio-One GmbH, Kremsmünster, Austria) at a density of 20,000 cells/well in 80 μL of complete RPMI medium and incubated overnight. After 16-18 hours post-transfection, the assay plates were washed with PBS (Corning Inc., Corning, N.Y.), followed by addition of 80 μL/well of serum-free RPMI 1640 medium containing 1× Penicillin-Streptomycin solution, 1×MEM and 350 nL of DMSO or titrations of Compound 1.” for “(ISG54).”

Like-named read-outs stand apart in the source and are kept apart here.

Chain of off-target kinases (Homo sapiens, UniProt P07948) (P07948 1-491 isoform P07948-2): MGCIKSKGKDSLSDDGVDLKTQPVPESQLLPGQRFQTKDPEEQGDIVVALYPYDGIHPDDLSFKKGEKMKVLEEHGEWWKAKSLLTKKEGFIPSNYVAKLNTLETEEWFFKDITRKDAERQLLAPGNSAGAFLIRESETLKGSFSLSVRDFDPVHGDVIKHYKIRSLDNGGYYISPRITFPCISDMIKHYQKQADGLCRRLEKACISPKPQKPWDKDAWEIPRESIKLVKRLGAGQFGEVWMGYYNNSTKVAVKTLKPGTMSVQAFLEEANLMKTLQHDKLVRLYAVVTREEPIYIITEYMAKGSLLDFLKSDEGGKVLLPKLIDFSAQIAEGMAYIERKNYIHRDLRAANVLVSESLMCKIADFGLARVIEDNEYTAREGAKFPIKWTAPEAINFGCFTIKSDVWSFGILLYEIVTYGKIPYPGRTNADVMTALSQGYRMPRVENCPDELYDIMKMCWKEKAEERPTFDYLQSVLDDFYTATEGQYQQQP
Chain of off-target kinases (Homo sapiens, UniProt P06241) (P06241 whole entry): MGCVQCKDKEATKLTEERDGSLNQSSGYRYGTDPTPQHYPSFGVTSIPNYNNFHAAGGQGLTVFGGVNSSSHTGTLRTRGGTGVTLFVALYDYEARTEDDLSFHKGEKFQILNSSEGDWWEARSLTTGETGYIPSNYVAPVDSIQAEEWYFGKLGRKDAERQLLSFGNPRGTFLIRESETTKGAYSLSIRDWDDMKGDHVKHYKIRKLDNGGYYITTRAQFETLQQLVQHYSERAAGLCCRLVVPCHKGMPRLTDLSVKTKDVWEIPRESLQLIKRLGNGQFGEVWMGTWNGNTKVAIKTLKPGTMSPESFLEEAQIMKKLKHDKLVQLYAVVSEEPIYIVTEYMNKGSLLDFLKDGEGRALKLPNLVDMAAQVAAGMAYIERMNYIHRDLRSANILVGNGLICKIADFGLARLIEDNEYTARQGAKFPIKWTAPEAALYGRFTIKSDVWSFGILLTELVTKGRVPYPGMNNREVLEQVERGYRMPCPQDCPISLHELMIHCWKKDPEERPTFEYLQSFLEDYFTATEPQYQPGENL

For the compound `N#Cc1cc(-c2ncnc(Nc3ccc(N4CCN(C5COC5)CC4)cc3)n2)ccc1OC1CCOCC1` [Compound 1, 5-(4-((4-(4-(oxetan-3-yl)piperazin-1-yl)phenyl)amino)-1,3,5-triazin-2-yl)-2-((tetrahydro-2H-pyran-4-yl)oxy)benzonitrile], in assay [1], the “survival, CT26 allograft, combination vs Cmpd1 or anti-PD-L1 alone” value is recorded as “longer survival”. Moreover, in assay [1], the “tumour control, CT26 allograft, combination vs Cmpd1 or anti-PD-L1 alone” value was “greater tumour control”. Moreover, the inhibition (in general, how much of the control response was suppressed) in assay [2] (read-out: % Inhibition 1) was found to be 16%; in assay [2] (read-out: % Inhibition 2), 21%; in assay [3] (read-out: % Inhibition 1) it was 56%; in assay [3] (read-out: % Inhibition 2) it was 50%; in assay [3] (read-out: % Inhibition Avg), 53%.

For the origin of these results see patent US11572590B2, “Methods for evaluating tumor cell spheroids using 3D microfluidic cell culture device” (Dana-Farber Cancer Institute, Inc., priority 2017, dated 2023).
